A word on the CC50: it is the concentration at which the toxic effect on the cells reaches its halfway point. A lower CC50 goes with greater toxicity to the cells. As a reminder, the EC50 is the concentration giving half of the maximal effect.

Experimental findings from ChEMBL document CHEMBL1139770, “Non-nucleoside inhibitors of the measles virus RNA-dependent RNA polymerase complex activity: Synthesis and in vitro evaluation” (Bioorg Med Chem Lett, 2007) are described below.

Data set [1] in a line: Cytotoxicity against Vero cells by MTT assay. The data set is classed as cell-based. The settings on record: chlorocebus sabaeus. For orientation: Tetrazolium assays rely on reduction of a dye to a coloured formazan, in cell work by metabolically active cells.
Data set [2] relates to Measles morbillivirus. The experiment in a line: Antiviral activity against Measles virus Alaska assessed as inhibition of viral-induced cytopathicity. The data set is classed as functional, organism-based. (In general: Cytopathic effects are the visible damage that an infection or toxin causes in cultured cells.)
Data set [3] in a line: Ratio of CC50 for Vero cells to IC50 for Measles virus Alaska. It is filed as functional.
A short description of data set [4]: Cytotoxicity against Vero cells by Trypan blue exclusion assay. The note with it: chlorocebus sabaeus. It is filed as cell-based.
In data set [5] the test system is Measles morbillivirus. Nature of the data set: Antiviral activity against Measles virus Alaska assessed as virus titer reduction. The data set is classed as functional.

A value given as a limit tells only on which side of the number the result lay.

Regarding `O=C(Nc1ccc(S(=O)(=O)N2CCCC2)cc1)c1ccc([N+](=O)[O-])cc1Cl`, the cytotoxic concentration (CC50) in data set [1] is over 300 µM. For the same compound, in the data set with Measles morbillivirus [2], the EC50 is over 75 µM.
`COc1ccc(Br)c(C(=O)Nc2ccc(S(=O)(=O)N3CCCC3)cc2)c1` had a CC50 in data set [1] of over 300 µM. Moreover, in the data set on Measles morbillivirus [2], the concentration giving a half-maximal response (EC50) was over 75 µM.
In turn, `Cn1nc(C(F)(F)F)cc1COc1ccc(S(=O)(=O)N2CCCC2)cc1` displayed a CC50 in data set [1] of over 300 µM. Moreover, the half-maximal effective concentration (EC50) in the data set with Measles morbillivirus [2] is over 75 µM.
In the case of `Cn1nc(C(F)(F)F)cc1C(=O)Nc1ccc(S(=O)(=O)N2CCC[C@H]2C(=O)O)cc1`, in data set [1], the cytotoxic concentration (CC50) was over 300 µM. Besides, the EC50 in the data set with Measles morbillivirus [2] is 23 µM.
For `O=C(Nc1ccc(S(=O)(=O)N2CCCC2)cc1)c1cccc(C(F)(F)F)c1`, in data set [1], the 50% cytotoxic concentration (CC50) is over 300 µM. In the data set with Measles morbillivirus [2], the half-maximal effective concentration (EC50) was over 75 µM.
With `O=C(Nc1ccc(S(=O)(=O)N2CCCC2)cc1)c1ccc(C(F)(F)F)cc1`, the cytotoxic concentration (CC50) in data set [1] was over 300 µM. Moreover, in the data set with Measles morbillivirus [2], the EC50 is 48 µM.
For `Cn1nc(C(F)(F)F)cc1C(=O)Nc1ccc(S(=O)(=O)N2CCOCC2)cc1` the same measures were over 300 µM and 43 µM.
The compound `O=C(Nc1ccc(S(=O)(=O)N2CCCC2)cc1)c1cccs1` displayed a CC50 in data set [1] of over 300 µM. In addition, the 50% effective concentration (EC50) with Measles morbillivirus [2] was over 75 µM.
On to `Cn1nc(C(F)(F)F)cc1CNc1ccc(S(=O)(=O)N2CCCC2)cc1`, for which the CC50 in data set [1] was over 300 µM. The concentration giving a half-maximal response (EC50) with Measles morbillivirus [2] was over 75 µM.
`O=C(Nc1ccc(S(=O)(=O)N2CCCC2)cc1)c1ccc(CCl)cc1` had a half-maximal cytotoxic concentration (CC50) in data set [1] of 11 µM.
As for `Cc1nc(C(F)(F)F)ccc1C(=O)Nc1ccc(S(=O)(=O)N2CCCC2)cc1`, the CC50 in data set [1] was over 300 µM. The 50% effective concentration (EC50) in the data set on Measles morbillivirus [2] was over 75 µM.
The compound `O=C(Nc1ccc(S(=O)(=O)N2CCCC2)cc1)c1nc2ccccc2s1` gave a 50% cytotoxic concentration (CC50) in data set [1] of over 300 µM. Besides, in the data set with Measles morbillivirus [2], the EC50 was over 75 µM.
In turn, `O=C(Nc1ccc(S(=O)(=O)N2CCCC2)cc1)c1ccco1` showed a half-maximal cytotoxic concentration (CC50) in data set [1] of over 300 µM. For the same compound, the EC50 in the data set with Measles morbillivirus [2] is over 75 µM.
In data set [1], `Cn1nc(C(F)(F)F)cc1C(=O)Nc1ccc(S(=O)(=O)N2CCCC2)cc1OC(=O)c1cc(C(F)(F)F)nn1C` returned a CC50 of 14 µM.
Compound `O=C(Nc1ccc(S(=O)(=O)N2CCCC2)cc1)c1cc(C(F)(F)F)nn1Cc1ccccc1` yielded a CC50 in data set [1] of 37 µM. Also, the EC50 in the data set with Measles morbillivirus [2] is over 75 µM.
`Cn1nc(C(F)(F)F)cc1C(=O)Nc1ccc(S(=O)(=O)n2ccc3ccccc32)cc1`: in data set [1], half-maximal cytotoxicity (CC50) was put at 13 µM.
Consider `Cn1nc(C(F)(F)F)cc1C(=O)Nc1ccc(S(=O)(=O)N2CCCC2)cc1O`, for which, in data set [1], the CC50 came out at 288 µM. The EC50 with Measles morbillivirus [2] was over 75 µM.
In data set [1], `Cn1nc(C(F)(F)F)cc1C(=O)Nc1ccc(S(=O)(=O)N2CCCC2)cc1N` came in with a CC50 of over 300 µM. Further, the EC50 in the data set on Measles morbillivirus [2] is at least 75 µM.
Turning to `Cn1nc(C(F)(F)F)cc1C(=O)Nc1ccc(S(=O)(=O)N2CCCCC2)cc1`, in data set [3], the “Ratio CC50/IC50” value is 16500. For the same compound, the CC50 in data set [1] was over 300 µM; in data set [4], 199 µM. In addition, in the data set with Measles morbillivirus [2], the concentration giving a half-maximal response (EC50) is under 2.3 µM. Moreover, in the data set on Measles morbillivirus [5], the Activity was 0.012 µM.
`Cn1nc(C(F)(F)F)cc1C(=O)Nc1ccc(S(=O)(=O)N2CCNCC2)cc1`: the midpoint of cytotoxicity in data set [1], the CC50, lay at 126 µM. Moreover, the EC50 with Measles morbillivirus [2] stood at 28 µM.
For the compound `O=C(Nc1ccc(S(=O)(=O)N2CCCC2)cc1)c1ccc(C(F)(F)F)cc1[N+](=O)[O-]`, the 50% cytotoxic concentration (CC50) in data set [1] is over 300 µM. In addition, the concentration for a half-maximal effect (EC50) with Measles morbillivirus [2] is over 75 µM.
In turn, `O=C(Nc1ccc(S(=O)(=O)N2CCCC2)cc1)c1ccc(F)cc1` returned a 50% cytotoxic concentration (CC50) in data set [1] of over 300 µM. Moreover, the EC50 in the data set with Measles morbillivirus [2] was over 75 µM.
Consider `Cn1nc(C(F)(F)F)cc1C(=O)Nc1ccc(S(=O)(=O)N2CCCC2)cc1NC(=O)c1cc(C(F)(F)F)nn1C`, for which the CC50 in data set [1] was determined as 13 µM.
Turning to `Cn1nc(C(F)(F)F)cc1C(=O)Nc1ccc(S(=O)(=O)N2CCC[C@H]2C(=O)OCc2ccccc2)cc1`, in data set [1], the CC50 amounted to 100 µM. For the same compound, the EC50 in the data set on Measles morbillivirus [2] was found to be 14 µM.
Take `O=C(Nc1ccc(S(=O)(=O)N2CCCC2)cc1)c1ccccc1C(F)(F)F`: the half-maximal cytotoxic concentration (CC50) in data set [1] is over 300 µM. Moreover, the EC50 in the data set on Measles morbillivirus [2] is over 75 µM.
For the compound `Cc1cc(C(=O)Nc2ccc(S(=O)(=O)N3CCCC3)cc2)n(C)n1`, the CC50 in data set [1] was over 300 µM. Besides, the EC50 in the data set on Measles morbillivirus [2] is over 75 µM.
In turn, `Cn1nc(C(C)(C)C)cc1C(=O)Nc1ccc(S(=O)(=O)N2CCCC2)cc1` registered a CC50 in data set [1] of 140 µM. Further, the concentration for a half-maximal effect (EC50) in the data set on Measles morbillivirus [2] worked out at 25 µM.
For `Cn1nc(C(F)(F)F)cc1C(=O)Nc1ccc(S(=O)(=O)N2CCCCC2C(=O)O)cc1` (stereo unspecified) the same measures were over 300 µM and over 75 µM.
Consider `O=C(Nc1ccc(S(=O)(=O)N2CCCC2)cc1)c1nccn1-c1ccccc1C(F)(F)F`, for which the CC50 in data set [1] was over 300 µM. In the data set with Measles morbillivirus [2], the 50% effective concentration (EC50) turned out to be 65 µM.
Turning to `Cn1nc(C(F)(F)F)cc1C(=O)Cc1ccc(S(=O)(=O)N2CCCC2)cc1`, in data set [1], the 50% cytotoxic concentration (CC50) is over 300 µM. The concentration for a half-maximal effect (EC50) with Measles morbillivirus [2] is 15.5 µM.
For `Cn1nc(C(F)(F)F)cc1C(O)Cc1ccc(S(=O)(=O)N2CCCC2)cc1` (stereo unspecified), the CC50 in data set [1] was over 300 µM. In the data set with Measles morbillivirus [2], the EC50 was 41 µM.
For `Nc1ccc(C(=O)Nc2ccc(S(=O)(=O)N3CCCC3)cc2)c(Cl)c1` the same measures were over 300 µM and over 75 µM.
`O=C(Nc1ccc(S(=O)(=O)N2CCCC2)cc1)c1ccc(Br)cc1`: the CC50 in data set [1] was 59 µM.
In the case of `O=C(Nc1ccc(S(=O)(=O)N2CCCC2)cc1)c1cc(C(F)(F)F)ccc1F`, the CC50 in data set [1] is 76 µM. Moreover, the EC50 with Measles morbillivirus [2] was at least 75 µM.
